The source of these data is patent publication US20040082623A1, “Fmoc-l-leucine and derivatives thereof as ppar-gamma agonists” (priority 2003, published 2004).

Structures are written as SMILES.

The assay relates to TNBS-treated Balb/c mice. In words: TNBS-induced colitis in Balb/c mice. Format: in vivo. The conditions noted are these: 50 mg/kg/day. The method, then:
FIG. 9: F-L-Leu protects against colon inflammation in TNBS-treated Balb/c Mice. A: Ameho histologic scores (left panel) and survival rate (right panel) in TNBS-treated mice injected either with DMSO or F-L-Leu (50 mg/kg/day). B: TNFα and IL-1β mRNA levels in the colon of TNBS-treated mice injected with DMSO or F-L-Leu (50 mg/kg/day). Results are expressed as mean±SEM.
RNA was isolated from 3T3-L1 cells by the acid guanidinium ? thiocyanate/phenol/chloroform method (Chomczynski and Sacchi, 1987). Northern blot analysis of total cellular RNA was performed as described (Auwerx et al., 1989) ? Lipoprotein lipase (LPL), aP2 and 36B4 were used as probes (Graves et al., 1992 ? Laborda, 1991; Lefebvre et al., 1997). For RT-competitive PCR, total RNA (5-10 μg ? was reverse transcribed into complementary DNA (cDNA) (Desreumaux et al., 1999 ? Fajas et al., 1997). The RT reaction mixture was amplified by PCR using sense an ? antisense primers specific for β-actin, TNFα and IL-1β. The samples were subjected t ? 40 PCR cycles, consisting of denaturation for 1 min at 94° C., primer annealing for ? min at 52-58° C., and primer extension for 1.5 min at 72° C. using a Gene Amp PCR ? System 9700 (Perkin-Elner Corporation, Foster City, Calif.). The quantity of mRNA was expressed as the number of TNFα or IL-1β cDNA per β-actin cDNA molecules.
Male Balb/c mice (8 per group) were used for the colitis studies (Jackson laboratories, Bar Harbor, Me.). Colitis was induced by administration of 40 μl of a solution of TNBS (150 mg/kg, Fluka, Saint Quentin Fallavier, France) dissolved in NaCl 0.9% and mixed with an equal volume of ethanol (50% ethanol). This solution was administered intrarectally via a 3.5 F catheter (Ref EO 3416-1, Biotrol, Chelles, France) inserted 4 cm proximal to the anus in anesthesized mice [Xylasine (50 mg/kg of Rompun® 2%, Bayer Pharma, Puteaux, France) and Ketamine (50 mg/kg of Imalgene® 1000, Rhône Mérieux, France)]. Animals were sacrified by cervical dislocation under ether anesthesia two days after TNBS administration. The colon was quickly removed, opened, washed. A 2 cm colonic specimen located precisely 2 cm above the anal canal was dissected systematically in 4 parts. One part was fixed overnight in 4% paraformaldehyde acid at 4° C., dehydrated in alcohol and embedded in paraffin. Sections (5 μm) were then deparaffined with xylene and rehydrated by ethanol treatment. Stained sections with haematoxylin-eosin were examined blindly by a pathologist and scored according to the Ameho criteria (Ameho et al., 1997). The other parts of the colon were used for RNA isolation for the quantification of TNFα and IL1β mRNA expression.

For the compound `CC(C)CC(NC(=O)OCC1c2ccccc2-c2ccccc21)C(=O)O` [F-L-Leu, N-(9-fluroroenylmethyloxycarbonyl)-L-Leucine], the Ameho histologic score result is reported as “reduced significantly”, the “IL-1β mRNA levels in colon” value is recorded as “significant decrease” and the “TNFα mRNA levels in colon” value is “significant decrease”. The survival rate (4 days, two days after TNBS, control 76%) turned out to be 100%.
